Assay [1] addresses recombinant CK2A2 (Homo sapiens (Human), UniProt P19784). Put plainly: CK2 kinase assay (CK2A2). As to conditions: Table B, comparison compound of WO 2007/038314 / US 2008/0045536. The assay is classed as biochemical.
Protocol: (§1) For example, in vitro protein kinase assays may be conducted with a relevant purified protein kinase and an appropriate synthetic substrate to determine the inhibitory activity of the compounds. […] Reaction mixtures were incubated at 30° C. for 1 hour, and reaction products were captured by binding to phosphocellulose (P81) filter plates. Incorporation of radioactive phosphate into the peptide substrate was determined by liquid scintillation counting.
(§2) The inhibitory activity of the instant compounds may also be measured by recombinant CK2 holoenzyme kinase assays. The assays were performed in U-bottom 384-well plates. […] The reaction was initiated by the combination of bacterially expressed, CK2α/β or CK2α′/β holoenzyme with substrates and test compounds. […] Compounds were dissolved at 10 mM in dimethylsulfoxide (DMSO) and evaluated at eleven concentrations. IC50 values were derived by non-linear regression analysis.
In assay [2] the target is recombinant CK2A1 (Homo sapiens (Human), UniProt P68400). Description: CK2 kinase assay (CK2A1). In kind it is biochemical. As to conditions: Table B, comparison compound of WO 2007/038314 / US 2008/0045536.
Protocol: as §1, §2

Each structure is given as a SMILES string.

Sequence of recombinant CK2A2 (P19784 whole entry): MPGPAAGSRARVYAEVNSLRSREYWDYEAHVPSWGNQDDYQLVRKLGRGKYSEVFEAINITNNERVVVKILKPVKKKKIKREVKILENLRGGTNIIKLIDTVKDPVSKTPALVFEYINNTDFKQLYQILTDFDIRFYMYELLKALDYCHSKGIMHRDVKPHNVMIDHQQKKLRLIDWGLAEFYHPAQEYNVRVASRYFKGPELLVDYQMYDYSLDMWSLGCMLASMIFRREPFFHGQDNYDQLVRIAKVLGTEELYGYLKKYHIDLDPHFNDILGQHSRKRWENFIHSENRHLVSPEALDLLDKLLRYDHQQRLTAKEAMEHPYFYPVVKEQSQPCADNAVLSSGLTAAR
Sequence of recombinant CK2A1 (P68400 whole entry): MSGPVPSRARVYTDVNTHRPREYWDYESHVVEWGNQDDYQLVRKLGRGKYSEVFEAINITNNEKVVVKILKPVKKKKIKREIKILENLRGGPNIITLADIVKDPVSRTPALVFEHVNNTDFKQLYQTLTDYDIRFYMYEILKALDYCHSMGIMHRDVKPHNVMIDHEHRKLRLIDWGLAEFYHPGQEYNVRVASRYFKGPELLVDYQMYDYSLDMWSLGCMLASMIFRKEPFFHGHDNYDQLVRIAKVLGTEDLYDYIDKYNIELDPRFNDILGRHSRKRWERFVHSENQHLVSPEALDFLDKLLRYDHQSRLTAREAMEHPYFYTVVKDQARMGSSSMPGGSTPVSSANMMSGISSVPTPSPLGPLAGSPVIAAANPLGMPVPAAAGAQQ

As for `CCOc1ccc(Nc2nc(N[C@H]3CC[C@@H](N)CC3)nn3ccnc23)cc1` [XIII], the IC50 in assay [1] was 331 nM; in assay [2], 1800 nM.

By IC50 is commonly meant the concentration that inhibits the measured activity by half.

For the origin of these results see patent publication US8940736B2, “Imidazotriazinecarbonitriles useful as kinase inhibitors” (Bristol-Myers Squibb Company, priority 2012, dated 2015).
